Experimental data as given in patent publication US20210254056A1, “IDENTIFICATION AND TARGETED MODULATION OF GENE SIGNALING NETWORKS” (CAMP4 THERAPEUTICS CORPORATION, priority 2017, published 2021).
Structures can show the parent of a compound that is named as a salt. Where two headings read alike, the source gives them in different places.

Tested on: hepatocytes
Experiment: RNA-seq of hepatocytes treated with Phase III failure compounds
Conditions: for significant modulation of expression of disease genes: q≤0.05, genes in the value or listed in the block; for B2M expression, RNA-seq result: gene B2M; for B9D2 expression, RNA-seq result: gene B9D2; for BAAT expression, RNA-seq result: gene BAAT; for BBOX1 expression, RNA-seq result: gene BBOX1; for BBS10 expression, RNA-seq result: gene BBS10; for BCHE expression, RNA-seq result: gene BCHE; for BCKDHB expression, RNA-seq result: gene BCKDHB; for BCKDK expression, RNA-seq result: gene BCKDK; for BCO1 expression, RNA-seq result: gene BCO1; for BCR expression, RNA-seq result: gene BCR; for BLNK expression, RNA-seq result: gene BLNK; for BLOC1S3 expression, RNA-seq result: gene BLOC1S3; for BMPR1A expression, RNA-seq result: gene BMPR1A; for BRAF expression, RNA-seq result: gene BRAF; for BSCL2 expression, RNA-seq result: gene BSCL2; for BTD expression, RNA-seq result: gene BTD; for C4A expression, RNA-seq result: gene C4A; for C9 expression, RNA-seq result: gene C9; for C10orf10 expression, RNA-seq result: gene C10orf10; for C10orf11 expression, RNA-seq result: gene C10orf11; for C15orf41 expression, RNA-seq result: gene C15orf41; for CA2 expression, RNA-seq result: gene CA2; for CA5A expression, RNA-seq result: gene CA5A; for CA12 expression, RNA-seq result: gene CA12; for CAV1 expression, RNA-seq result: gene CAV1; for CCND1 expression, RNA-seq result: gene CCND1; for CD46 expression, RNA-seq result: gene CD46; for CD81 expression, RNA-seq result: gene CD81; for CD320 expression, RNA-seq result: gene CD320; for CDAN1 expression, RNA-seq result: gene CDAN1; for CDH1 expression, RNA-seq result: gene CDH1; for CEP19 expression, RNA-seq result: gene CEP19; for CEP83 expression, RNA-seq result: gene CEP83; for CEP164 expression, RNA-seq result: gene CEP164; for CEP290 expression, RNA-seq result: gene CEP290; for CFB expression, RNA-seq result: gene CFB; for CFHR2 expression, RNA-seq result: gene CFHR2; for CHRM3 expression, RNA-seq result: gene CHRM3; for CIDEC expression, RNA-seq result: gene CIDEC; for CLDN1 expression, RNA-seq result: gene CLDN1; for COG1 expression, RNA-seq result: gene COG1; for significant modulation of expression of any of the genes analyzed: p≤0.05; for significant changes in gene expression: RNA-seq of Table 36, FPKM≥0.5, log 2(fold-change)≥1, q-value≤0.05
Protocol: RNA-seq was performed to determine the effects of the compounds on hepatocytes.
Significance was determined by the criteria of FPKM≥0.5, a log 2(fold-change)≥1, and a […].

[1] = RNA-seq, Phase III failure compounds, hepatocytes, significance: FPKM≥0.5, log 2(fold-change)≥1, q-value≥0.05 (so in the source)

## CN(C)[C@@H]1C(O)=C(C(N)=O)C(=O)[C@@]2(O)C(O)=C3C(=O)c4c(O)c(NC(=O)CN5CCCC5)cc(F)c4C[C@H]3C[C@@H]12 [TP-434 (Eravacycline), Eravacycline]
  Number (#) of genes having significantly changed expression: 232
RNA-seq, hepatocytes
  significant modulation of expression of disease genes: significantly (q≤0.05) modulate expression
hepatocytes
  B2M expression, RNA-seq result: 0.56
  B9D2 expression, RNA-seq result: 0.16
  BAAT expression, RNA-seq result: −0.52
  BBOX1 expression, RNA-seq result: −0.06
  BBS10 expression, RNA-seq result: 0.05
  BCHE expression, RNA-seq result: 0.12
  BCKDHB expression, RNA-seq result: 0.04
  BCKDK expression, RNA-seq result: −0.23
  BCO1 expression, RNA-seq result: −0.13
  BCR expression, RNA-seq result: −0.17
  BLNK expression, RNA-seq result: −0.18
  BLOC1S3 expression, RNA-seq result: 0.32
  BMPR1A expression, RNA-seq result: −0.06
  BRAF expression, RNA-seq result: 0.03
  BSCL2 expression, RNA-seq result: 1.5
  BTD expression, RNA-seq result: −0.25
  C4A expression, RNA-seq result: −0.38
  C9 expression, RNA-seq result: 0.21
  C10orf10 expression, RNA-seq result: −0.02
  C10orf11 expression, RNA-seq result: 0.56
  C15orf41 expression, RNA-seq result: 0.12
  CA2 expression, RNA-seq result: 0.71
  CA5A expression, RNA-seq result: 0.32
  CA12 expression, RNA-seq result: 0.2
  CAV1 expression, RNA-seq result: 0.34
  CCND1 expression, RNA-seq result: −0.7
  CD46 expression, RNA-seq result: 0.23
  CD81 expression, RNA-seq result: 0.17
  CD320 expression, RNA-seq result: 0.3
  CDAN1 expression, RNA-seq result: −0.27
  CDH1 expression, RNA-seq result: −0.59
  CEP19 expression, RNA-seq result: 0.1
  CEP83 expression, RNA-seq result: −0.15
  CEP164 expression, RNA-seq result: −0.21
  CEP290 expression, RNA-seq result: 0.55
  CFB expression, RNA-seq result: 0.23
  CFHR2 expression, RNA-seq result: 0.4
  CHRM3 expression, RNA-seq result: −0.27
  CIDEC expression, RNA-seq result: −0.79
  CLDN1 expression, RNA-seq result: 0.09
  COG1 expression, RNA-seq result: −0.37

## CCC(CC)[C@H](NC(C)=O)[C@@H]1[C@H](O)[C@@H](C(=O)O)C[C@H]1N=C(N)N [Peramivir]
[1]
  Number (#) of genes having significantly changed expression: 23

## CCCCCCCCCCCCCCCCCCOP(=O)([O-])OC1CC[N+](C)(C)CC1 [Perifosine (KRX-0401), Perifosine]
RNA-seq, hepatocytes
  significant modulation of expression of any of the genes analyzed: not observed to significantly modulate expression

## CCCCCCCCCCCCCCCCOCCCOP(=O)(O)CO[C@H](CO)Cn1ccc(N)nc1=O [CMX001 (Brincidofovir), Brincidofovir]
  significant changes in gene expression: not observed to cause any significant changes in gene expression
RNA-seq, hepatocytes
  significant modulation of expression of any of the genes analyzed: not observed to significantly modulate expression
  effect on disease gene expression: no effect on any disease gene

## CS(=O)(=O)c1cc(F)cc2c3c(n(Cc4ccc(Cl)cc4)c12)[C@@H](CC(=O)O)CC3 [Laropiprant (tredaptive), Laropiprant]
  significant changes in gene expression: not observed to cause any significant changes in gene expression
RNA-seq, hepatocytes
  significant modulation of expression of any of the genes analyzed: not observed to significantly modulate expression

## O=C(N[C@H]1CN2CCC1CC2)c1cc2cccc(Cl)c2s1 [EVP-6124 (hydrochloride) (encenicline), encenicline]
[1]
  Number (#) of genes having significantly changed expression: 141
RNA-seq, hepatocytes
  significant modulation of expression of disease genes: significantly (q≤0.05) modulate expression
hepatocytes
  B2M expression, RNA-seq result: 0.16
  B9D2 expression, RNA-seq result: −0.55
  BAAT expression, RNA-seq result: 0.61
  BBOX1 expression, RNA-seq result: −0.14
  BBS10 expression, RNA-seq result: −0.33
  BCHE expression, RNA-seq result: −0.41
  BCKDHB expression, RNA-seq result: −0.31
  BCKDK expression, RNA-seq result: −0.23
  BCO1 expression, RNA-seq result: 0.24
  BCR expression, RNA-seq result: −0.06
  BLNK expression, RNA-seq result: 0.39
  BLOC1S3 expression, RNA-seq result: 0.46
  BMPR1A expression, RNA-seq result: 0.09
  BRAF expression, RNA-seq result: 0.04
  BSCL2 expression, RNA-seq result: −0.54
  BTD expression, RNA-seq result: −0.08
  C4A expression, RNA-seq result: 0.24
  C9 expression, RNA-seq result: −0.11
  C10orf10 expression, RNA-seq result: −0.31
  C10orf11 expression, RNA-seq result: 0.1
  C15orf41 expression, RNA-seq result: −0.2
  CA2 expression, RNA-seq result: 0.6
  CA5A expression, RNA-seq result: 0.1
  CA12 expression, RNA-seq result: 0.58
  CAV1 expression, RNA-seq result: −0.81
  CCND1 expression, RNA-seq result: −0.9
  CD46 expression, RNA-seq result: 0.24
  CD81 expression, RNA-seq result: 0.27
  CD320 expression, RNA-seq result: −0.04
  CDAN1 expression, RNA-seq result: −0.04
  CDH1 expression, RNA-seq result: −0.12
  CEP19 expression, RNA-seq result: −0.06
  CEP83 expression, RNA-seq result: −0.3
  CEP164 expression, RNA-seq result: −0.12
  CEP290 expression, RNA-seq result: −0.26
  CFB expression, RNA-seq result: 0.1
  CFHR2 expression, RNA-seq result: −0.08
  CHRM3 expression, RNA-seq result: 0.28
  CIDEC expression, RNA-seq result: −0.13
  CLDN1 expression, RNA-seq result: −0.46
  COG1 expression, RNA-seq result: −0.19

## CN[C@@]1(C)[C@@H]2CC[C@@H](C2)C1(C)C [TC-5214]
  Number (#) of genes having significantly changed expression: 30

## COc1nc(N)nc2c1ncn2[C@@H]1O[C@H](COP(=O)(N[C@@H](C)C(=O)OCC(C)(C)C)Oc2cccc3ccccc23)[C@@H](O)[C@@]1(C)O (some centres unmarked) [bms-986094]
  Number (#) of genes having significantly changed expression: 2079
